Measurements reported in patent publication US8192935B2, “Methods for assessing cisplatin resistance, disease progression, and treatment efficacy in ovarian cancer as related to MetAP2 expression” (The Penn State Research Foundation, priority 2003, dated 2012).
Several values for one entry are separate records, joined by “and”; a condition that tells them apart may be missing. Equal values may be shown once. Read-outs that look alike come from different tables or passages of the source.

Tests used:
[1] = tested on: OVCA 429 cells; settings: for 429: increased sensitivity to cis-platin: OVCA 429 cells with specific siRNA
[2] = tested on: OVCAR-3 cells; assay: tumor growth of OVCAR-3 cells in nude mice; type: in vivo; settings: cis-platin 4 μg/kg IP 3 times a week for 2 weeks, then 1 week no treatment; one mouse
Method: The following protocol was developed for examining tumor growth using OVCAR-3 cells and nude mice: OVCAR-3 cells (15 million/injection) were inoculated under upper arm region of nude mice. Visible lumps appeared after 25 days. The tumors were measurable at about 35 days after inoculation and animals were then either treated with cis-platin at 4 μg/kg body weight administered by IP injection 3 times a week for 2 weeks, followed by 1 week with no treatment or treated with saline solution alone as control. […] A photograph of the tumors before and after cis-platin treatment is also shown.

[3] = tested on: zinc finger protein 262/MYM (AB007885); assay: siRNA-mediated knockdown of gene expression; type: cell-based, human; settings: OVCA 429 cells
[4] = tested on: OVCAR-3 cells; assay: MTT assay, cis-platin sensitivity with siRNA; type: cell-based, human; settings: OVCAR-3 cells with specific siRNA
[5] = biological target: MetAP-2 (Homo sapiens, UniProt P50579); settings: Griffith et al.; cited from earlier work
[6] = tested on: human colon cancer; settings: Tanaka et al., 1995; cited from earlier work
[7] = tested on: eEF1ε (BC005291); assay: siRNA-mediated knockdown of gene expression; type: cell-based, human; settings: ovarian cancer cell lines
[8] = tested on: RNPS1 (AF015608); assay: siRNA-mediated knockdown of gene expression; type: cell-based, human; settings: ovarian cancer cell lines
[9] = tested on: eIF5 (U49436); assay: siRNA-mediated knockdown of gene expression; type: cell-based, human; settings: OVCA 429 cell
[10] = tested on: SRB1/CLA1/CD3611 (BCO22087); assay: siRNA-mediated knockdown of gene expression; type: cell-based, human; settings: ovarian cancer cell lines
[11] = tested on: NM23-D (BC004880); assay: siRNA-mediated knockdown of gene expression; type: cell-based, human; settings: OVCA 429 cells
[12] = tested on: Vinexin 13 (AF037261); assay: siRNA-mediated knockdown of gene expression; type: cell-based, human; settings: OVCA 429 cells
[13] = tested on: MetAP-2; settings: several different cell types; Wang et al., 2000; cited from earlier work
[14] = tested on: SAPK/Erk1 (L36870); assay: siRNA-mediated knockdown of gene expression; type: cell-based, human; settings: ovarian cancer cell lines

MetAP-2 (Homo sapiens, UniProt P50579), sequence (P50579 whole entry, species assumed): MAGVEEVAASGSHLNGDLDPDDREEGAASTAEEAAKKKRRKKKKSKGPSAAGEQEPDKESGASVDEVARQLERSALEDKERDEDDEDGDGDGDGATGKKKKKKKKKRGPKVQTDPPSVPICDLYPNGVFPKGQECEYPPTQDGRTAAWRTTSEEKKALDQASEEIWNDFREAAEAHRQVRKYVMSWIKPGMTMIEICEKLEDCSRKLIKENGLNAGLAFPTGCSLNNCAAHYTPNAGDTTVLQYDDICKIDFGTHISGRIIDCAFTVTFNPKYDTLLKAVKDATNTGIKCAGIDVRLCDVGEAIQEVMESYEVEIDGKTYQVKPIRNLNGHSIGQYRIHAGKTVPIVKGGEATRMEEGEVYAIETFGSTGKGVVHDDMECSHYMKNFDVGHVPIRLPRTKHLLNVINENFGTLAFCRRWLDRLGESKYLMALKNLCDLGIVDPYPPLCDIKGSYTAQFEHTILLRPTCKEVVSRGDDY

For `N.N.[Cl][Pt][Cl]` [cis-platin], the IC50 ([1]; read-out: IC50 of cis-platin alone, OVCA 429, 4 hours exposure (FIG. 40)) was roughly 100 µM, the IC50 ([1]; read-out: IC50 of cis-platin, controls without specific siRNA or inhibitor, OVCA 429, 24 hour exposure, siPORT only or sense strand only) was 25 to 50 µM and 25 µM and ~25 µM and the tumor size [2] was “stabilization of the tumor size”.
In the case of “Zinc finger protein 262/MYM siRNA #3: siRNA to zinc finger protein 262/MYM; target sequence AAAATATGGGAACCTACAATA (guide AAAATATGGGAACCTACAATA; target site or template, no part of the molecule; listed as DNA, chemistry not given here; listed as Homo Sapiens)”, the “reduction of zinc finger protein 262/MYM mRNA levels compared to control” value [3] is reported as “approximately 45%”, the “429: increased sensitivity to cis-platin” value [1] is reported as “yes” and the “OVCAR-3: increased sensitivity to cis-platin” value (“OVCAR-3: increased sensitivity” below) [4] is reported as “yes”.
In the case of `CO[C@@H]1[C@H](OC(=O)NC(=O)CCl)CC[C@]2(CO2)[C@H]1[C@@]1(C)O[C@@H]1CC=C(C)C` [TNP-470], the “inhibition of the methionine aminopeptidase activity of MetAP-2” value [5] is given as “covalently binds to and inhibits” and the “hepatic metastasis of human colon cancer” value [6] is given as “can be prevented”.
For “eEF1ε siRNA #2: siRNA to eEF1ε; target sequence AATACAGGGTCACTCAAGTAG (guide AATACAGGGTCACTCAAGTAG; target site or template, no part of the molecule; listed as DNA, chemistry not given here; listed as Homo Sapiens)”, the “reduction in the level of eEF1ε mRNA” value [7] was “successful in reducing the expression of eEF1ε”.
For “RNPS1 siRNA #1: siRNA to RNPS1; target sequence AATATTCATACGGCATGGACT (guide SDNAATATTCATACGGCATGGACT; target site or template, no part of the molecule; listed as DNA, chemistry not given here; listed as Homo Sapiens)”, the “reduction in the level of RNPS1 mRNA” value [8] was 35% and the “429: increased sensitivity to cis-platin” value [1] was “yes”.
With “eIF5 siRNA #1: siRNA to eIF5; target sequence AATGACCGTTACATTGTCAAT (guide AATGACCGTTACATTGTCAAT; target site or template, no part of the molecule; listed as DNA, chemistry not given here; listed as Homo Sapiens)” the “reduction of eIF5 mRNA levels compared to control” value [9] was “approximately 59%”, the “429: increased sensitivity to cis-platin” value [1] was “yes” and the “OVCAR-3: increased sensitivity” value [4] was “yes”.
For “SRB1 siRNA #1: siRNA to SRB1; target sequence AAGCAGCAGGTCCTTAAGAAC (guide AAGCAGCAGGTCCTTAAGAAC; target site or template, no part of the molecule; listed as DNA, chemistry not given here; listed as Homo Sapiens)”, the “reduction in the level of SRB1 mRNA” value [10] was 60%, the “429: increased sensitivity to cis-platin” value [1] was “yes” and the “OVCAR-3: increased sensitivity” value [4] was “yes”.
For “NM23D siRNA #3: siRNA to NM23-D; target sequence AATGTCATCCACGCCAGCGAC (guide AATGTCATCCACGCCAGCGAC; target site or template, no part of the molecule; listed as DNA, chemistry not given here; listed as Homo Sapiens)”, the “reduction of NM23-D mRNA levels compared to control” value [11] was “approximately 50%”, the “429: increased sensitivity to cis-platin” value [1] was “yes” and the “OVCAR-3: increased sensitivity” value [4] was “yes”.
In the case of “Vinexin β siRNA #2: siRNA to Vinexin (AF037261); target sequence AAGAGTTACCTAGAAGCACCT (guide AAGAGTTACCTAGAAGCACCT; target site or template, no part of the molecule; listed as DNA, chemistry not given here; listed as Homo Sapiens)”, the “reduction of Vinexin mRNA levels compared to control” value [12] is reported as “approximately 50%”, the “429: increased sensitivity to cis-platin” value [1] is reported as “no” and the “OVCAR-3: increased sensitivity” value [4] is reported as “yes”.
In the case of “SRB1 siRNA #3: siRNA to SRB1; target sequence AATTCAGAACGTCAGCACCTG (guide AATTCAGAACGTCAGCACCTG; target site or template, no part of the molecule; listed as DNA, chemistry not given here; listed as Homo Sapiens)”, the “reduction in the level of SRB1 mRNA” value [10] is reported as “successful in reducing the expression of SRB1”.
For `CO[C@@H]1[C@H](OC(=O)/C=C/C=C/C=C/C=C/C(=O)O)CC[C@]2(CO2)[C@H]1[C@@]1(C)O[C@@H]1CC=C(C)C` [fumagillin], the “inhibition of the methionine aminopeptidase activity of MetAP-2” value [5] is listed as “covalently binds to and inhibits”, the “expression of MetAP-2 after treatment” value [13] is listed as “increased expression of MetAP-2” and the “effect on the action of cis-platin” value ([1]; OVCA 429, 0.1 μg/ml fumagillin, 4 hours) is listed as “enhancement of the effect of cis-platin”. For the same compound, the “effect on the action of cis-platin” value ([1]; OVCA 429, 0.1 μg/ml fumagillin, 8 hours) was “enhancement of the effect of cis-platin”, the “effect on the action of cis-platin” value ([1]; OVCA 429, 0.1 μg/ml fumagillin, regardless of the length of incubation time (FIGS. 41 and 42)) was “enhancement of the effect of cis-platin” and the “effect on the action of cis-platin” value ([1]; OVCA 429, 10 μg/ml fumagillin, regardless of the length of incubation time (FIGS. 41 and 42)) was “opposite effect”. For the same compound, the “cell survival with fumagillin alone” value ([1]; OVCA 429, very high concentrations of fumagillin, 4 hours (FIG. 40)) was “up to 80%”.
With “eEF1ε siRNA #1: siRNA to eEF1ε; target sequence AACAGGATTGACTACTATAGC (guide AACAGGATTGACTACTATAGC; target site or template, no part of the molecule; listed as DNA, chemistry not given here; listed as Homo Sapiens)” the “reduction in the level of eEF1ε mRNA” value [7] was 65%.
With “SAPK/Erk1 siRNA #2: siRNA to SAPK/Erk1; target sequence AAGCGCATCACGACAAGGATA (guide AAGCGCATCACGACAAGGATA; target site or template, no part of the molecule; listed as DNA, chemistry not given here; listed as Homo Sapiens)” the “reduction in the level of SAPK mRNA” value [14] was 60%, the “429: increased sensitivity to cis-platin” value [1] was “yes” and the “OVCAR-3: increased sensitivity” value [4] was “yes”.
